The target of one data set is Cytochrome P450 2C19 (Homo sapiens, UniProt P33261). Description: Cytochrome panel assay with activity outcomes. Panel member name: p450-cyp2c19 Compounds with AC50 equal or less than 10 uM are considered active. The data set is classed as functional.
In a further data set the target is Cytochrome P450 2C9 (Homo sapiens, UniProt P11712).
Data set [1] is described as follows: NIH-3T3 fibroblast cytotoxicity, dose response, cytotoxicity control, cell-based, fluorescence, Alamar Blue, secondary assay (AID 2327).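 Further: NIH-3T3 mouse fibroblasts cultured with fluconazole at 8 µg/mL.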 Format: functional. (In general: Resazurin is reduced to fluorescent resorufin, in cell work by metabolically active cells.)
Data set [2] in a line: C. albicans growth with fluconazole, confirmation, fluorescence, retest (AID 2467). The data set is classed as functional, cell-based.
The next data set has as its target Cytochrome P450 3A4 (Homo sapiens, UniProt P08684).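 Further: CYP3A4 tested as one member of a cytochrome P450 panel screen.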
The target in a further data set is T1, Cytochrome P450 1A2 (Homo sapiens, UniProt P05177).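 Further: PubChem cytochrome P450 panel assay, CYP1A2 panel member.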
T1 sequence (P05177 whole entry): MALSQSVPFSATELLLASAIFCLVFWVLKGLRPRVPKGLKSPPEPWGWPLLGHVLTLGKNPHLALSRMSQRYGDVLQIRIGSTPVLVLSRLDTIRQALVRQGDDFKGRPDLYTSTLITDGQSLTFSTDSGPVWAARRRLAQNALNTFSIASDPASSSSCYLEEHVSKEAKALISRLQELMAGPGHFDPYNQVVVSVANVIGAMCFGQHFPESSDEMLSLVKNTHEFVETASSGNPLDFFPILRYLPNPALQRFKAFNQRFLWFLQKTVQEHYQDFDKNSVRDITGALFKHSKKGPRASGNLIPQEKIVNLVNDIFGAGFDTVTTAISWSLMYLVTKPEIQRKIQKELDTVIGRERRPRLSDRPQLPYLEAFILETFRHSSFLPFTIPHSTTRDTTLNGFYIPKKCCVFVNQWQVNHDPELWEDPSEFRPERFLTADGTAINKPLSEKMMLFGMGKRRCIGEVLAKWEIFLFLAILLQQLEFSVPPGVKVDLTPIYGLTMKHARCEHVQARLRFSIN

The target in data set [3] is T2, Corticotropin-releasing factor receptor 2/Corticotropin-releasing factor-binding protein (Homo sapiens, UniProt P24387+Q13324).
T2 sequence (Q13324 whole entry): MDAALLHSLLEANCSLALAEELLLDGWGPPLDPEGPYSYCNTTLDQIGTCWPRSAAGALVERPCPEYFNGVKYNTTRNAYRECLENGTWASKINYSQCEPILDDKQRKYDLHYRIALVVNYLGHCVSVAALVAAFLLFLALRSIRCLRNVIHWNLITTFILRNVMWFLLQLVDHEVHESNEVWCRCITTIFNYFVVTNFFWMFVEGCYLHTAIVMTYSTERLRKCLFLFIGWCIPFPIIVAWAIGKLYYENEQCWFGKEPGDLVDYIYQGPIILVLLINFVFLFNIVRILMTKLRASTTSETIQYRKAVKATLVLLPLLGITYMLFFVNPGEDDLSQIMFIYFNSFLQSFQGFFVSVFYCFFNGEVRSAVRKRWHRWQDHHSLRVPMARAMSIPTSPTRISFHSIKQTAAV
T2 sequence (P24387 whole entry): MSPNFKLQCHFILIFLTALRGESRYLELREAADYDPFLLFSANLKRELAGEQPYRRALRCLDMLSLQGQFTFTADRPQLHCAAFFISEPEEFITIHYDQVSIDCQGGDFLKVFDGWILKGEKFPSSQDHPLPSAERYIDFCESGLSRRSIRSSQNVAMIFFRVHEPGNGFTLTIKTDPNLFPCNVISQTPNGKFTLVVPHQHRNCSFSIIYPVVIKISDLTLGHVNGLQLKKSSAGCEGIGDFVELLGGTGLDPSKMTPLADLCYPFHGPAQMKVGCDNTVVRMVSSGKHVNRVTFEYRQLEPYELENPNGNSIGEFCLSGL
Description: activators of CRF receptor 2 with binding protein – uHTS hits, confirmation (AID 602473). Format: functional. To be noted: read-out: EC50_Mean.

Calls of active or inactive are those of the source.

Cytochrome P450 2C19, sequence (P33261 whole entry): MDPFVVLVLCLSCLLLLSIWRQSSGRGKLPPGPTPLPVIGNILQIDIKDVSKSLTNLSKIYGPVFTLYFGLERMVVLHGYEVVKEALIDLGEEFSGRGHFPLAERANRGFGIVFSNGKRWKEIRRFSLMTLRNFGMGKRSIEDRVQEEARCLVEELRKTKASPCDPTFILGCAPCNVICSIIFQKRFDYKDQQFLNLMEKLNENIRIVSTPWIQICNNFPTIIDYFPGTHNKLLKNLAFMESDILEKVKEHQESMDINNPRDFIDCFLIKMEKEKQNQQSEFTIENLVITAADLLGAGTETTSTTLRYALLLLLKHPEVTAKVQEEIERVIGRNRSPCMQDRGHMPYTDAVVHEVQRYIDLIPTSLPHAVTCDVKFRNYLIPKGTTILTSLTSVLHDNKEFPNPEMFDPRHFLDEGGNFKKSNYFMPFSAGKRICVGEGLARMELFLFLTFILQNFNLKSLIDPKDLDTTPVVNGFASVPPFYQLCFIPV
Cytochrome P450 3A4, sequence (P08684 whole entry): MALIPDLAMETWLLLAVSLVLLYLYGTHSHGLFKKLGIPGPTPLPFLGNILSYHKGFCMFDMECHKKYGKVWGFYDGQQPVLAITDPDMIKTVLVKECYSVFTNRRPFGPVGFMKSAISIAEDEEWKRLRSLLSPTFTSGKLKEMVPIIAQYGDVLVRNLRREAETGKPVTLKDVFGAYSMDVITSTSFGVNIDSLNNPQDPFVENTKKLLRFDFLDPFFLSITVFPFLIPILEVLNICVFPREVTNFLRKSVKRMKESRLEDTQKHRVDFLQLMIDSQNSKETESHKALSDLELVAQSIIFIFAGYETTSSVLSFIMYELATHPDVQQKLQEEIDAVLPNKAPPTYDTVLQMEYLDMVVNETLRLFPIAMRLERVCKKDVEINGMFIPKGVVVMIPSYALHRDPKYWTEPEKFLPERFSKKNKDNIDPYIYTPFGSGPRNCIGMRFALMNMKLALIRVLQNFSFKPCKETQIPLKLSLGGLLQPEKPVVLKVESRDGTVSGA
Cytochrome P450 2C9, sequence (P11712 whole entry): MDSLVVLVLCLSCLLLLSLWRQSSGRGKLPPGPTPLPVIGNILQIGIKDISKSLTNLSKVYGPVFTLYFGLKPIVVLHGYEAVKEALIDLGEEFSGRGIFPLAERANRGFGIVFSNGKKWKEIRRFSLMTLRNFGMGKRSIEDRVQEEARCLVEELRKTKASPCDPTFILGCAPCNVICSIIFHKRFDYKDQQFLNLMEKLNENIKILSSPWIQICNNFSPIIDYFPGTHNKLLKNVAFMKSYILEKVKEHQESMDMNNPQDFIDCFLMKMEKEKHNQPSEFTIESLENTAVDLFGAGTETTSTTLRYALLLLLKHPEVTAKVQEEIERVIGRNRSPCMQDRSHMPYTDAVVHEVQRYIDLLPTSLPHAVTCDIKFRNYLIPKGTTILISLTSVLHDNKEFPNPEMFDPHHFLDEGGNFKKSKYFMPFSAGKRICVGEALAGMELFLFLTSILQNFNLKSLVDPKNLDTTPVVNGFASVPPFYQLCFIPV

A word on the AC50: it is the concentration giving half of the maximal activity seen. As to `COc1ccccc1N(CC(=O)NCC1CCCO1)C(=O)CNS(=O)(=O)c1ccc(C)cc1` (stereo not drawn), the results for the AC50 on Cytochrome P450 2C19 (read-out: AC50) and at Cytochrome P450 2C9 were 35.5 µM (inconclusive) and 31.6 µM (inconclusive), respectively. As to `Brc1ccc(CSc2nnc(-c3cnccn3)n2Cc2ccco2)cc1`, the figures for the EC50 in data set [1] and in data set [2] were > 160 µM (inconclusive) and 1.58 µM (active), respectively. In the case of `CC(C)CNS(=O)(=O)c1cc(C(=O)N2CC(C)OC(C)C2)c(Cl)cc1Cl` (stereo not drawn), the AC50 on Cytochrome P450 2C19 (read-out: AC50) and at Cytochrome P450 2C9 was 25.1 µM (inconclusive) in each case. As for `COc1ccc(NC(=O)c2cc(S(=O)(=O)N3CCS(=O)(=O)CC3)ccc2Cl)cc1`, at Cytochrome P450 3A4, the concentration at half-maximal activity (AC50) was 14.1 µM (inconclusive).

With `CC[N+](CC)(CC)CCOc1ccc(/C=C\c2ccccc2)cc1`, the AC50 on Cytochrome P450 1A2 was 31.6 µM (inconclusive). For the compound `Cc1ccc(C(=O)CC(=O)c2ccc(C(C)(C)C)cc2)cc1`, the EC50 in data set [1] was > 160 µM (inactive); in data set [2] it was > 38 µM (not active). Regarding `Cc1nnc(-c2cnn(-c3ccccc3)c2N)n1Cc1ccccc1`, the AC50 is 25.1 µM (inconclusive) on Cytochrome P450 3A4 and 39.8 µM (inconclusive) on Cytochrome P450 2C9. As to `COc1cccc(Cn2c(=O)c(-c3cccs3)nc3cnc(N(C)C)nc32)c1`, the figures for the AC50 at Cytochrome P450 2C19 (read-out: AC50), on Cytochrome P450 3A4 and at Cytochrome P450 1A2 were 0.00631 µM (inconclusive), 15.8 µM (inconclusive) and 15.8 µM (inconclusive), respectively. On to `OCC[n+]1ccc(/C=C/c2c[nH]c3ccccc23)cc1`, for which the EC50 in data set [3] was 8.55 µM (active). In the case of `C=CCNC(S)=NNc1ncnc2sc3c(c12)CC(C)(C)OC3`, the AC50 was 8.91 µM (inconclusive) at Cytochrome P450 2C19 (read-out: AC50), 17.8 µM (inconclusive) at Cytochrome P450 3A4, 8.91 µM (inconclusive) at Cytochrome P450 2C9 and 12.6 µM (inconclusive) at Cytochrome P450 1A2. Regarding `CCN1CCN(C(=O)C2c3cc(OC)c(OC)cc3C(=O)N3CCc4ccccc4C23)CC1` (stereo not drawn), the AC50 result was “inconclusive” on Cytochrome P450 2C19 and 28.2 µM (inconclusive) on Cytochrome P450 3A4. On to `O=c1c(-c2cc(F)cc(F)c2)nc2cncnc2n1Cc1ccccc1Cl`, for which the concentration at half-maximal activity (AC50) is 15.8 µM (inconclusive) at Cytochrome P450 3A4 and 5.01 µM (inconclusive) at Cytochrome P450 1A2. As to `Cc1cccc(C)c1NC(=S)NC(=O)CCc1ccccc1`, the figures for the AC50 at Cytochrome P450 2C9 and on Cytochrome P450 1A2 were 25.1 µM (inconclusive) and 22.4 µM (inconclusive), respectively. Take `Cc1ccc2c3ncn(Cc4ccco4)c(O)c-3nc2c1`: in data set [3], the EC50 is > 53 µM (inactive).

Regarding `CCCCNC(=O)c1cn(C)c2ccc(S(=O)(=O)N3CCCC3)cc2c1=O`, the EC50 in data set [1] was > 150 µM (inactive).

With `O=C(c1ccc2c(=O)n(Cc3ccco3)c(=S)[nH]c2c1)N1CCN(c2ccccc2)CC1`, the results for the AC50 at Cytochrome P450 2C9 and at Cytochrome P450 1A2 were 25.1 µM (inconclusive) and 3.16 µM (inconclusive), respectively. Take `COc1cccc(Cn2c(=O)c(-c3cccs3)nc3cnc(Nc4cccc(OC)c4)nc32)c1`: the AC50 at Cytochrome P450 3A4 was 12.6 µM (inconclusive); on Cytochrome P450 2C9, 0.794 µM (inconclusive); on Cytochrome P450 1A2 it was 2.51 µM (inconclusive).

As to `CC1=CC(=C(C#N)c2nc3ccccc3s2)C=C(C)N1c1ccc(F)cc1F`, the EC50 in data set [3] is 10.2 µM (active).

With `COc1ccccc1CN1CCCC2(CCN(C(=O)Oc3ccccc3)CC2)C1`, on Cytochrome P450 3A4, the AC50 was 15.8 µM (inconclusive). Turning to `CCCC[C@H]1C[C@@H]1[C@@H]1N(P(=O)(c2ccccc2)c2ccccc2)[C@](CO)(c2ccccc2)CC12CC2`, at Cytochrome P450 2C19 (read-out: AC50), the AC50 is 7.94 µM (inconclusive).

Regarding `Cc1cccc2c1Oc1ccccc1[C@@H]2NC(=O)c1ccc([N+](=O)[O-])cc1`, the half-maximal activity concentration (AC50) on Cytochrome P450 2C9 was 7.94 µM (inconclusive). On to `Cc1cc(Cl)ccc1OC(C)C(=O)Nc1ccccc1N1CCOCC1` (stereo not drawn), for which the EC50 in data set [3] was 6 µM (active). In the case of `C/C(O)=C(/C#N)C(=O)Nc1cc(Br)ccc1Br`, the AC50 on Cytochrome P450 3A4 was 15.8 µM (inconclusive). With `Cc1cccc(OCC(=O)N2CCC(N3CCCCCC3)CC2)c1`, the concentration at half-maximal activity (AC50) at Cytochrome P450 2C19 (read-out: AC50) was 39.8 µM (inconclusive). Regarding `CC(C)(Oc1ccc([C@@H]2CC2(Cl)Cl)cc1)C(=O)O`, the AC50 on Cytochrome P450 2C9 is 31.6 µM (inconclusive). Turning to `COCC(=O)N1CCC2(CC1)CCN(c1cccc(-c3ccccc3)c1)CC2`, at Cytochrome P450 2C19 (read-out: AC50), the AC50 is 39.8 µM (inconclusive). As for `CC(C)CN1CC[C@@]2(CCCN(C(=O)c3csnn3)C2)C1`, the AC50 on Cytochrome P450 3A4 was 20 µM (inconclusive).

Consider `Cc1ccc(COc2coc(CO)cc2=O)cc1`, for which the AC50 at Cytochrome P450 1A2 was 15.8 µM (inconclusive). Take `CC(=O)NC(NC(C)=O)c1ccc(Br)cc1`: the AC50 at Cytochrome P450 1A2 was 10 µM (inconclusive).

With `O=C(/C=C\c1ccc(-c2cccc([N+](=O)[O-])c2)o1)N1CCOCC1`, the EC50 in data set [1] was > 150 µM (inactive); in data set [2] it was > 38 µM (not active).

Take `O=C(Nc1cccc(C(F)(F)F)c1)c1cccnc1`: the EC50 in data set [1] was > 160 µM (inactive); in data set [2], 4.39 µM (active). Take `COc1ccccc1C(=O)O/N=C1/CCCc2c1ccc(OC)c2[N+](=O)[O-]`: the AC50 on Cytochrome P450 3A4 was 22.4 µM (inconclusive). In the case of `CN1CCN(S(=O)(=O)c2ccc3ncc(C(=O)O)c(O)c3c2)CC1`, on Cytochrome P450 2C19 (read-out: AC50), the AC50 was 22.4 µM (inconclusive).

On to `CC(CCc1ccccc1)NC(=O)C(=O)NCCO` (stereo not drawn), for which the AC50 on Cytochrome P450 2C9 was 0.794 µM (inconclusive). Consider `Cc1ccccc1CN1C2=NCCN2C(=O)C2=C1CCN(Cc1ccccc1)C2`, for which the AC50 on Cytochrome P450 3A4 is 3.98 µM (inconclusive).

In the case of `Cc1cc(OCc2nc(N)nc(N)c2-c2ccc(Cl)c(Cl)c2)ccc1[N+](=O)[O-]`, the results for the AC50 on Cytochrome P450 3A4 and at Cytochrome P450 1A2 were 3.98 µM (inconclusive) and 5.01 µM (inconclusive), respectively.

Consider `Cc1ccc(S(=O)(=O)n2ccc(-c3cccc(OCc4c(F)cccc4Cl)c3)n2)cc1`, for which the AC50 on Cytochrome P450 3A4 was 7.94 µM (inconclusive). For `CN1CCN(c2ncc3nc(-c4cc(F)cc(F)c4)c(=O)n(CCC#N)c3n2)CC1`, the AC50 is 15.8 µM (inconclusive) on Cytochrome P450 3A4, 31.6 µM (inconclusive) at Cytochrome P450 2C9 and 15.8 µM (inconclusive) on Cytochrome P450 1A2. `C=CC/N=C1\CC(C)(C)CC(O)=C1C(=O)c1ccccc1`: the AC50 on Cytochrome P450 3A4 is 25.1 µM (inconclusive). With `COc1ccc(-n2c(=O)c(-c3cccs3)nc3cnc(Nc4ccccc4)nc32)cc1`, the AC50 on Cytochrome P450 1A2 was 31.6 µM (inconclusive). As for `Cc1c(Nc2scc(-c3ccccc3)[n+]2-c2ccccc2)c(=O)n(-c2ccccc2)n1C`, the EC50 was 18 µM (active) in data set [1] and 0.111 µM (active) in data set [2]. Consider `O=C1NCCc2c1[nH]c1ccccc21`, for which the AC50 at Cytochrome P450 2C19 (read-out: AC50) is 15.8 µM (inconclusive). For the compound `Cc1ccc(C(=O)N2CCN(c3cc(O)nnc3-c3ccccc3)CC2)cc1`, on Cytochrome P450 2C9, the AC50 was 31.6 µM (inconclusive). `Cc1cc(C(=O)N[C@@H](c2ccccc2)[C@]2(C)C[C@H]2[C@@H](C)C(=O)Nc2ccc3ccccc3c2)n(C)n1`: the AC50 on Cytochrome P450 1A2 was 12.6 µM (inconclusive). On to `Cc1ccc(C)c(S(=O)(=O)NC(CC(C)C)C(=O)O)c1` (stereo not drawn), for which the AC50 on Cytochrome P450 2C19 (read-out: AC50) is 39.8 µM (inconclusive). The same measure, in the same setting: with `COCCn1c(=O)c(-c2cccc(C#N)c2)nc2cnc(Oc3ccccc3)nc21` the figure was 39.8 µM (inconclusive). For `CCC(=O)Nc1cccc(NC(=O)c2cccc([N+](=O)[O-])c2)c1`, the figures for the concentration at half-maximal activity (AC50) result at Cytochrome P450 2C19 and on Cytochrome P450 2C9 were “inconclusive” and 17.8 µM (inconclusive), respectively. In the case of `CC1CCN(CCOc2cc(Cl)ccc2Cl)CC1`, on Cytochrome P450 2C9, the AC50 is 0.891 µM (inconclusive). As for `COc1cccc(CN(C(=O)c2cc3ccccc3oc2=O)C2CC2)c1`, the EC50 in data set [1] is 18.6 µM (inconclusive); in data set [2] it was > 38 µM (not active). Consider `N=C(N)NCc1cccc(I)c1` [IOBENGUANE], for which the AC50 on Cytochrome P450 1A2 is 12.6 µM (inconclusive).

Turning to `CCC(C)NS(=O)(=O)c1ccc(OCC(=O)Nc2ccc3c(c2)OCCO3)cc1` (stereo not drawn), the AC50 at Cytochrome P450 2C19 (read-out: AC50) was 7.08 µM (inconclusive); at Cytochrome P450 3A4, 15.8 µM (inconclusive). In the case of `O=C(COC(=O)c1cnccn1)NCc1ccccc1`, the AC50 was 39.8 µM (inconclusive) on Cytochrome P450 2C19 (read-out: AC50) and 12.6 µM (inconclusive) on Cytochrome P450 2C9.

These data come from ChEMBL document CHEMBL1201862, “PubChem BioAssay data set” (2004).
